According to ChEMBL document CHEMBL5500341, “Discovery of pyrido[3,2-d]pyrimidin-6(5H)-one derivatives as checkpoint kinase 1 (CHK1) inhibitors with potent antitumor efficacy” (Eur J Med Chem, 2024):
Activity calls are given as the source filed them. No cut-off for these calls is given here.

Test system: HCT-116
Assay: cells
Conditions: Homo sapiens, HCT-116, 72 h
Description: Antiproliferative activity against human HCT-116 cells assessed as inhibition of cell proliferation incubated for 72 hrs by CCK-8 assay
`N#Cc1cnc(Nc2cc(NC[C@H]3CNCCO3)c(C(F)(F)F)cn2)cn1` [SRA-737] showed an IC50 of over 10 µM.

Test system: HL-60
Assay: cells
Conditions: Homo sapiens, HL-60, 72 h
Description: Antiproliferative activity against human HL-60 cells assessed as inhibition of cell proliferation incubated for 72 hrs by CCK-8 assay
For `N#Cc1cnc(Nc2cc(NC[C@H]3CNCCO3)c(C(F)(F)F)cn2)cn1` [SRA-737], the IC50 was over 10 µM.

Test system: HT-29
Assay: cells
Conditions: Homo sapiens, HT-29, 72 h
Description: Antiproliferative activity against human HT-29 cells assessed as inhibition of cell proliferation incubated for 72 hrs by CCK-8 assay
For `N#Cc1ncc(Nc2ncc3c(n2)CCC(=O)N3)cc1NC1CCNC1` (single isomer, unassigned), the IC50 was over 10 µM. With `N#Cc1cnc(Nc2cc(NC[C@H]3CNCCO3)c(C(F)(F)F)cn2)cn1` [SRA-737] the IC50 was over 10 µM. `N#Cc1ncc(Nc2ncc3[nH]c(=O)ccc3n2)cc1N[C@H]1CC[C@H](N)CC1` showed an IC50 of over 10 µM. With `N#Cc1ncc(Nc2ncc3[nH]c(=O)ccc3n2)cc1N[C@H]1CC[C@@H](N)CC1` the IC50 was over 10 µM. In the case of `CC(C)(C)OC(=O)N1CCC(Nc2cc(Nc3ncc4c(n3)CCC(=O)N4)cnc2C#N)C1` (single isomer, unassigned), the IC50 is reported as over 10 µM. `N#Cc1ncc(Nc2ncc3[nH]c(=O)ccc3n2)cc1N1CCOCC1` gave an IC50 of over 10 µM. Work on `N#Cc1ncc(Nc2ncc3[nH]c(=O)ccc3n2)cc1NC1CCNC1` (single isomer, unassigned) yielded an IC50 of over 10 µM. Compound `N#Cc1ncc(Nc2ncc3[nH]c(=O)ccc3n2)cc1N[C@H]1CCCNC1` has an IC50 of over 10 µM. In the case of `N#Cc1ncc(Nc2ncc3[nH]c(=O)ccc3n2)cc1NC[C@@H]1CCCNC1`, the IC50 is reported as over 10 µM. In the case of `N#Cc1ncc(Nc2ncc3[nH]c(=O)ccc3n2)cc1NCCN`, the IC50 is reported as over 10 µM.

Test system: HT-29
Assay: Synergistic antiproliferative activity against human HT-29 cells assessed as inhibition of cell proliferation incubated for 72 hrs in presence of 50 nM gemcitabine by CCK-8 assay
Type: functional, cell-based
Conditions: HT-29, 72 h
With `N#Cc1cnc(Nc2cc(NC[C@H]3CNCCO3)c(C(F)(F)F)cn2)cn1` [SRA-737] the IC50 was 0.177 µM.

Test system: HT-29
Assay: Antitumor activity against human HT-29 cells xenografted in female BALB/c mouse assessed as tumor growth inhibition at 30 mg/kg, iv administered once daily for 21 days and measured after 3 days by vernier calipers analysis
Conditions: HT-29, 576 h, read-out: TGI
`Nc1ccn([C@@H]2O[C@H](CO)[C@@H](O)C2(F)F)c(=O)n1` [GEMCITABINE] gave an inhibition in vivo at 30 mg/kg of 33.5%.

Test system: not listed separately
Assay: Metabolic stability in human liver microsome assessed as half life preincubated with compound for 10 mins followed by NADPH addition and measured up to 60 min by LC-MS/MS analysis
Type: ADME
Conditions: liver microsomes, time < 70 min
Work on `O=C(O)Cc1ccccc1Nc1c(Cl)cccc1Cl` [DICLOFENAC] yielded a half-life of 5.14 min.

Test system: not listed separately
Assay: Metabolic stability in human microsome assessed as intrinsic clearance preincubated with compound for 10 mins followed by NADPH addition and measured up to 60 min by LC-MS/MS analysis
Type: ADME
Conditions: microsomes, time < 70 min, read-out: CLH
`O=C(O)Cc1ccccc1Nc1c(Cl)cccc1Cl` [DICLOFENAC] gave a microsomal CLint of 269 µL/min/mg.

Test system: not listed separately
Assay: Metabolic stability in human liver microsome assessed as intrinsic clearance preincubated with compound for 10 mins followed by NADPH addition and measured up to 60 min by LC-MS/MS analysis
Type: ADME
Conditions: liver microsomes, time < 70 min, read-out: CLH
Work on `O=C(O)Cc1ccccc1Nc1c(Cl)cccc1Cl` [DICLOFENAC] yielded a CLint scaled of 242 mL/min/kg.

Target: T1, Serine/threonine-protein kinase Chk1 (Homo sapiens) (UniProt O14757)
T1 sequence (whole entry): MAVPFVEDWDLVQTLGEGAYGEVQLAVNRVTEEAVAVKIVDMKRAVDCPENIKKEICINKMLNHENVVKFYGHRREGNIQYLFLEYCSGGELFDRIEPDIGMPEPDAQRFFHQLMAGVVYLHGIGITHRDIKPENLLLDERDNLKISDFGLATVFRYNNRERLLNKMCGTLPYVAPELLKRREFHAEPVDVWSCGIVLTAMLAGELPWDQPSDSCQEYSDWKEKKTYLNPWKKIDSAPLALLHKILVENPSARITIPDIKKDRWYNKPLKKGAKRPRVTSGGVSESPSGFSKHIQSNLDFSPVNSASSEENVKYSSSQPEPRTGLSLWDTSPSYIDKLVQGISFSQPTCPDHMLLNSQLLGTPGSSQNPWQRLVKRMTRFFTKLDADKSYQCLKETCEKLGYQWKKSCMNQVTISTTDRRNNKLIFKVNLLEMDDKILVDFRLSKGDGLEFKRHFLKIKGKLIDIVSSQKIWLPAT
Assay: Inhibition of CHK1 in human MV4-11 cells assessed as decrease in S296 phosphorylation at 11.11 nM measured for 24 hrs by Western blot analysis
Type: cell-based
Conditions: not given
For `Nc1ccn([C@@H]2O[C@H](CO)[C@@H](O)C2(F)F)c(=O)n1` [GEMCITABINE], the inhibition was “Active”.

Test system: A2780
Assay: cells
Conditions: Homo sapiens, A2780, 72 h
Description: Antiproliferative activity against human A2780 cells assessed as inhibition of cell proliferation incubated for 72 hrs by CCK-8 assay
In the case of `N#Cc1cnc(Nc2cc(NC[C@H]3CNCCO3)c(C(F)(F)F)cn2)cn1` [SRA-737], the IC50 is reported as over 10 µM.

Test system: MDA-MB-468
Assay: cells
Conditions: Homo sapiens, MDA-MB-468, 72 h
Description: Antiproliferative activity against human MDA-MB-468 cells assessed as inhibition of cell proliferation incubated for 72 hrs by CCK-8 assay
Work on `N#Cc1cnc(Nc2cc(NC[C@H]3CNCCO3)c(C(F)(F)F)cn2)cn1` [SRA-737] yielded an IC50 of over 10 µM.

Test system: MV4-11
Assay: Antiproliferative activity against human MV4-11 cells assessed as inhibition of cell proliferation incubated for 72 hrs by CCK-8 assay
Type: functional, cell-based
Conditions: MV4-11, 72 h
Work on `N#Cc1ncc(Nc2ncc3c(ccc(=O)n3CC(F)F)n2)cc1OCC1CCNCC1` yielded an IC50 of over 10 µM. For `N#Cc1ncc(Nc2ncc3c(n2)CCC(=O)N3)cc1NC1CCNC1` (single isomer, unassigned), the IC50 was over 10 µM. Work on `N#Cc1ncc(Nc2ncc3c(ccc(=O)n3CC(F)(F)F)n2)cc1N[C@H]1CC[C@@H](N)CC1` yielded an IC50 of 2.11 µM. Compound `CN(C)CCNc1cc(Nc2ncc3c(ccc(=O)n3CC(F)F)n2)cnc1C#N` has an IC50 of 3.81 µM. Compound `N#Cc1ncc(Nc2ncc3c(ccc(=O)n3CC(F)F)n2)cc1OCCCN` has an IC50 of over 10 µM. Work on `CCn1c(=O)ccc2nc(Nc3cnc(C#N)c(N[C@H]4CC[C@@H](N)CC4)c3)ncc21` yielded an IC50 of 2.23 µM. In the case of `N#Cc1ncc(Nc2ncc3c(ccc(=O)n3CC(F)F)n2)cc1OC1CCNCC1`, the IC50 is reported as over 10 µM. `CN1CCC(Oc2cc(Nc3ncc4c(ccc(=O)n4CC(F)F)n3)cnc2C#N)CC1` gave an IC50 of over 10 µM. With `N#Cc1ncc(Nc2ncc3[nH]c(=O)ccc3n2)cc1N[C@H]1CC[C@H](N)CC1` the IC50 was 0.0394 µM. Work on `N#Cc1ncc(Nc2ncc3c(ccc(=O)n3CC(=O)O)n2)cc1N[C@H]1CC[C@@H](N)CC1` yielded an IC50 of over 10 µM. Compound `N#Cc1ncc(Nc2ncc3c(ccc(=O)n3CC(F)(F)F)n2)cc1N[C@H]1CCNC1` has an IC50 of over 10 µM. With `N#Cc1ncc(Nc2ncc3c(ccc(=O)n3CC(F)F)n2)cc1NCCN` the IC50 was over 10 µM. In the case of `N#Cc1ncc(Nc2ncc3c(ccc(=O)n3CC(N)=O)n2)cc1N[C@H]1CC[C@@H](N)CC1`, the IC50 is reported as 8.64 µM. `N#Cc1ncc(Nc2ncc3c(ccc(=O)n3CC(F)F)n2)cc1NC[C@H]1CCNC1` gave an IC50 of over 10 µM. `CC(C)n1c(=O)ccc2nc(Nc3cnc(C#N)c(N[C@H]4CC[C@@H](N)CC4)c3)ncc21` showed an IC50 of 2.19 µM. In the case of `N#Cc1ncc(Nc2ncc3[nH]c(=O)ccc3n2)cc1N[C@H]1CC[C@@H](N)CC1`, the IC50 is reported as 0.0565 µM. With `N#Cc1ncc(Nc2ncc3c(ccc(=O)n3CC(F)F)n2)cc1N[C@@H]1CCCNC1` the IC50 was 3.63 µM. In the case of `CC(C)(C)OC(=O)N1CCC(Nc2cc(Nc3ncc4c(n3)CCC(=O)N4)cnc2C#N)C1` (single isomer, unassigned), the IC50 is reported as over 10 µM. For `N#Cc1ncc(Nc2ncc3c(ccc(=O)n3CC(F)F)n2)cc1O[C@@H]1CCNC1`, the IC50 was over 10 µM. `N#Cc1ncc(Nc2ncc3c(ccc(=O)n3CC(F)F)n2)cc1NC1CCNCC1` gave an IC50 of over 10 µM. With `N#Cc1ncc(Nc2ncc3c(ccc(=O)n3CC(F)F)n2)cc1NCC1CCCCN1` (configuration not stated) the IC50 was 3.8 µM. With `N#Cc1ncc(Nc2ncc3c(ccc(=O)n3CC(F)F)n2)cc1O[C@H]1CCCNC1` the IC50 was over 10 µM. Work on `N#Cc1ncc(Nc2ncc3[nH]c(=O)ccc3n2)cc1NC1CCNC1` (single isomer, unassigned) yielded an IC50 of over 10 µM. `Cn1c(=O)ccc2nc(Nc3cnc(C#N)c(N[C@H]4CC[C@@H](N)CC4)c3)ncc21` showed an IC50 of 0.883 µM. For `N#Cc1ncc(Nc2ncc3c(ccc(=O)n3CC(F)F)n2)cc1N[C@H]1CC[C@H](N)CC1`, the IC50 was 2.67 µM. For `N#Cc1ncc(Nc2ncc3c(ccc(=O)n3CC(F)F)n2)cc1O[C@@H]1CCCNC1`, the IC50 was 4.88 µM. `N#Cc1ncc(Nc2ncc3c(ccc(=O)n3CC(F)F)n2)cc1OC[C@H]1CCCNC1` showed an IC50 of over 10 µM. For `N#Cc1ncc(Nc2ncc3c(ccc(=O)n3CC(F)F)n2)cc1N[C@H]1CC[C@@H](N)CC1`, the IC50 was 2.47 µM. For `N#Cc1ncc(Nc2ncc3[nH]c(=O)ccc3n2)cc1N[C@H]1CCCNC1`, the IC50 was 0.0195 µM.

Test system: HT-29
Assay: Synergistic antiproliferative activity against human HT-29 cells assessed as inhibition of cell proliferation incubated for 72 hrs in presence of 50 nM 5-((4-((morpholin-2-ylmethyl)amino)-5-(trifluoromethyl)pyridin-2-yl)amino)pyrazine-2-carbonitrile by CCK-8 assay
Type: functional, cell-based
Conditions: HT-29, 72 h
In the case of `Nc1ccn([C@@H]2O[C@H](CO)[C@@H](O)C2(F)F)c(=O)n1` [GEMCITABINE], the IC50 is reported as 0.177 µM.

Test system: OVCAR-3
Assay: cells
Conditions: Homo sapiens, OVCAR-3, 72 h
Description: Antiproliferative activity against human OVCAR-3 cells assessed as inhibition of cell proliferation incubated for 72 hrs by CCK-8 assay
`N#Cc1cnc(Nc2cc(NC[C@H]3CNCCO3)c(C(F)(F)F)cn2)cn1` [SRA-737] gave an IC50 of over 10 µM.

Test system: A549
Assay: cells
Conditions: Homo sapiens, A549, 72 h
Description: Antiproliferative activity against human A549 cells assessed as inhibition of cell proliferation incubated for 72 hrs by CCK-8 assay
`N#Cc1cnc(Nc2cc(NC[C@H]3CNCCO3)c(C(F)(F)F)cn2)cn1` [SRA-737] showed an IC50 of over 10 µM.
